According to patent US20240002437A1, “COMPOSITIONS AND METHODS OF TREATING INFLAMMATORY LUNG DISEASES” (priority 2020, published 2024):

Tests used:
Assay type in all cases: cell-based, ovine
NOS-derived superoxide = NOS-derived superoxide by EPR (eNOS uncoupling) in PAEC
Experimental: (§1) Primary cultures of ovine pulmonary arterial endothelial cells (PAEC) were isolated as described previously (L. K. Kelly, Am J Physiol Lung Cell Mol Physiol, 286(5), L984-91 (2004)). Briefly, cells were maintained in Dulbecco's modified Eagle medium (DMEM) supplemented with 10% fetal calf serum (Hyclone, Logan, UT), antibiotics/antimycotic (500 IU Penicillin, 500 μg/ml Streptomycin, 1.25 μg/ml Amphotericin B; MediaTech, Herndon, VA) at 37° C. in a humidified atmosphere with 5% CO2 and 95% air. Cells were used for experiments between passages 9-14, seeded at ˜50% confluence, and utilized when fully confluent.
Superoxide levels were estimated by electron paramagnetic resonance (EPR) assay using the spin-trap compound 1-hydroxy-3-methoxycarbonyl-2,2,5,5-tetramethylpyrrolidine HCl (CMH, Axxora) as described previously. Superoxide in PAEC was trapped by incubating PAEC with 20 μl of CMH stock solution (20 mg/ml) for 1 h, followed by trypsinization and centrifugation at 500 g. The cell pellet was suspended in 35 μl DPBS and loaded into a capillary tube which was then analyzed with a MiniScope MS200 EPR machine (Magnettech, Berlin, Germany). Pre-incubating cells or tissue with 100 μM ethylisothiourea (ETU, Sigma-Aldrich) for 30 min followed by incubation with CMH measured NOS-derived superoxide. EPR spectra were analyzed using ANALYSIS v.2.02 software (Magnettech). Differences between levels of samples incubated in the presence and absence of ETU were used to determine NOS-dependent superoxide generation.

[1] = test system: mitochondrial redistribution of eNOS; experiment: Immunofluorescent microscopy of eNOS mitochondrial redistribution in PAEC
Experimental: as §1
PAEC were grown on cover glass for three days after reaching 100% confluence, and fixed with 4% paraformaldehyde (Thermo Fisher Scientific) for 30 min, permeabilized with 100% cold methanol at −20° C. for 5 min Cell then blocked with 1% BSA for 1 hour, and later incubated with first antibody overnight at 4° C. then secondary antibody at room temperature for 1 hour. Finally, cells were mounted on microscope slides using ProLong Glass Antifade Mountant, (Invitrogen, Carlsbad, CA, Cat #P36980). […] The images were analyzed with ImagePro Plus 7.0 (W. Casavan, Microscopy Today, 11(6), 48-50 (2003)) or ImageJ software to evaluate the colocalization of fluorescent.

[2] = test system: eNOS phosphorylation at T495; experiment: Western blot of pT495-eNOS in PAEC
Experimental: as §1
Protein extracts were prepared using lysis buffer (50 mM Tris-HCl, pH 7.6, 0.5% Triton X-100, 20% glycerol) containing HALT™ protease inhibitor cocktail (Pierce Laboratories, Rockford, IL). The extracts were then subjected to centrifugation (15,000 g for 15 min at 4° C.). Supernatant fractions were assayed for protein concentration using the Bradford reagent (Bio-Rad, Richmond, CA) then used for Western blot analyses. Protein extracts (25-50 μg) were separated on Long-Life 4-20% Tris-SDS-Hepes gels and electrophoretically transferred to IMMUNO-BLOT™ PVDF membrane (Bio-Rad Laboratories, Hercules, CA) Immunoblotting was then carried out using the appropriate antibodies in Tris-base buffered saline with 0.1% Tween 20 and 5% nonfat milk. After washing, the membranes were probed with horseradish peroxidase-conjugated goat antiserum to rabbit or mouse. Reactive bands were visualized using chemiluminescence (Super Signal West Femto; Pierce, Rockford, IL) on a LI-COR Odyssey image station (Lincoln, NE). Bands were quantified using LI-COR Image Station software. Loading was normalized by reprobing the membranes with an antibody specific to β-actin.

PAEC monolayers = experiment: Trans endothelial resistance (TER) of PAEC monolayers
Experimental: as §1
Transendothelial Electrical Resistance (TER) was determined to characterize the integrity of PAEC monolayers using an electrical cell-substrate impedance sensing (ECIS) instrument ECIS Z-Theta (Applied BioPhysics, Troy, NY) as previously described (J. N. Gonzales, Vascul Pharmacol, 62(2), 63-71 (2014); S. Aggarwal, American Journal of Respiratory Cell and Molecular Biology, 50(3), 614-25 (2014)). The cells were plated in 8-well ECIS arrays (Applied BioPhysics) in complete cell culture medium (DMEM supplemented with 10% FBS) and grown to 100% confluency for 2 days. […] After a baseline measurement, the EC were treated with 4αPDD, PMA, the eNOS pT495 decoy peptide, or vehicle at the indicated concentrations, and changes in TER were recorded in real time.

PAEC [3] = experiment: Cellular peroxynitrite levels (DHR 123 oxidation) in PAEC; settings: 4αPDD
Experimental: as §1
The level of cell peroxynitrite was determined by the oxidation of dihydrorhodamine (DHR) 123 (EMD Millipore, Billerica, MA) to rhodamine 123, as previously described (S. Aggarwal, J Cell Physiol, 226(12), 3104-13 (2011)). Briefly, cultured PAEC were treated with or without TGF-β1 (5 ng/ml, 8 h) or GW9662 (5 μM, 24 h). The cells were collected and the cell pellet was then treated with PEG-Catalase (100 U, 30 min) to reduce H2O2 dependent DHR 123 oxidation. DHR 123 (5 μM, 30 min) was added to the cell pellet in phenol red-free media and the fluorescence of rhodamine 123 measured using a Fluoroskan Ascent Microplate Fluorometer with excitation at 485 nm and emission at 545 nm. Fluorescent values were normalized to the protein levels in each sample.

PAEC [4] = experiment: Mitochondrial membrane potential (TMRM) in PAEC; settings: 4αPDD 10 μM, 3 h
Experimental: as §1
Mitochondrial membrane potential was determined using TMRM (tetramethylrhodamine methyl ester perchlorate, Molecular Probes, Eugene, OR). Briefly, after each experiment, cells were washed with fresh media, incubated in media containing TMRM (50 nM), for 30 min at 37° C. in dark conditions, then subjected to fluorescence microscopy using an excitation of 548 nm and an emission at 575 nm. An Olympus IX51 microscope equipped with a CCD camera (Hamamatsu Photonics) was used for acquisition of fluorescent images and the average fluorescent intensities were quantified using ImagePro Plus version 5.0 imaging software (Media Cybernetics).

Compound | eNOS uncoupling (NOS-derived superoxide levels) (NOS-derived superoxide; d-peptide and PMA) | PMA-induced mitochondrial redistribution of eNOS ([1]; d-peptide and PMA) | PMA-mediated increase in pT495-eNOS ([2]; d-peptide 1 μg/ml, PMA 100 nm, 2 h) | barrier disruption induced by 4αPDD (normalized TER) (PAEC monolayers; d-peptide plus 4αPDD) | cellular peroxynitrite levels (PAEC [3]) | NOS derived superoxide generation (eNOS uncoupling) (NOS-derived superoxide; 4αPDD) | mitochondrial redistribution of eNOS ([1]; 4αPDD) | eNOS phosphorylation at T495 ([2]; 4αPDD) | mitochondrial membrane potential (TMRM) (PAEC [4]) | TER (barrier integrity) (PAEC monolayers; 4αPDD 0-15 μM)
HRKKRRQRRITRKKTFKEVA [d-peptide] | reduced eNOS uncoupling | attenuated | attenuated the PMA-mediated increase in pT495-eNOS | reduced |  |  |  |  |  | 
CCCCCCCCCC(=O)O[C@@H]1[C@@H](C)[C@@]2(O)[C@@H](C=C(CO)C[C@@]3(O)C(=O)C(C)=C[C@@H]23)[C@@H]2C(C)(C)[C@]12OC(=O)CCCCCCCCC [4αPDD, 4α-Phorbol-12,13 didecanoate] |  |  |  |  | increases | increases in NOS derived superoxide generation | induces the mitochondrial redistribution of eNOS | increase in eNOS phosphorylation at T495 | decrease in the mitochondrial membrane potential | dose-dependent decrease in TER
